In brackets after ≈: the same amount, converted by molar mass. *1 amine or outer side, *2 acyl side, *3 side chain or, on linkers, in order; H or OH if unused. Where a SMILES comes first, the peptide text is derived from it. Bridges are numbered along the chain shown (N, C = ends). [ ]: non-standard residue; d: D form. X1 = CC(C)CCCCCCCCC[C@H](CC(=O)[*:1])O[*:2]
Columns and labels:
[1] = system: Escherichia coli MTCC 739; test: Microtiter broth dilution MIC; format: cell-based; conditions: Escherichia coli MTCC 739, 24 h, 35° C.
Procedure: (§1) The antimicrobial activity of Microsan and M-EPS-Au-NP was determined using the microtiter broth dilution method [Kumar, C. G. and Mamidyala, S. K. (2011) Coll. Surf B: Biointerf. 84, 462-466]. Different bacterial pathogens (10^7 cfu ml^−1 cells) were inoculated in 100 μl of Muller-Hinton broth. Different concentrations of Microsan, M-EPS-Au-NP and Brevisan were added to each strain and incubated for 24 h at 35° C. After incubation, 40 μl of p-iodonitrotetrazolium (INT, Sigma) dye (0.02%, 20 mg INT dissolved in 100 ml of 40% dimethyl formamide was added to each well and incubated for 2 h. The reduction of p-iodonitrotetrazolium was spectroscopically measured at 450 nm using TRIAD multimode reader (Dynex Technologies, Inc., Chantilly, Va.) to determine the minimum inhibitory concentration (MIC) values. Commercially available surfactin (CAS 24730-31-2; Sigma-Aldrich) and laminarin (CAS No 9008-22-4; Sigma-Aldrich) used as positive controls were run in parallel for comparison. The MIC values of Microsan and M-EPS-Au-NP observed against the tested bacterial strains are shown in Table 3.

[2] = system: Staphylococcus aureus MLS16 MTCC 2940; test: Microtiter broth dilution MIC; format: cell-based; conditions: Staphylococcus aureus MLS16 MTCC 2940, 24 h, 35° C.
Procedure: as §1

[3] = system: Micrococcus luteus MTCC 2470; test: Microtiter broth dilution MIC; format: cell-based; conditions: Micrococcus luteus MTCC 2470, 24 h, 35° C.
Procedure: as §1

[4] = system: Pseudomonas aeruginosa MTCC 2453; test: Microtiter broth dilution MIC; format: cell-based; conditions: Pseudomonas aeruginosa MTCC 2453, 24 h, 35° C.
Procedure: as §1

[5] = system: Staphylococcus aureus MTCC 96; test: Microtiter broth dilution MIC; format: cell-based; conditions: Staphylococcus aureus MTCC 96, 24 h, 35° C.
Procedure: as §1

[6] = system: Klebsiella planticola MTCC 530; test: Microtiter broth dilution MIC; format: cell-based; conditions: Klebsiella planticola MTCC 530, 24 h, 35° C.
Procedure: as §1

[7] = system: Bacillus subtilis MTCC 121; test: Microtiter broth dilution MIC; format: cell-based; conditions: Bacillus subtilis MTCC 121, 24 h, 35° C.
Procedure: as §1

[8] = DPPH free radical scavenging assay (cell free); format: biochemical; conditions: 35° C., 30 min
Procedure: (§2) The antioxidant activity of Microsan from Microbacterium sp. strain BS-2 and Brevisan from Brevibacillus sp. strain BS-207 in cell free system was measured by its inhibitory activity on the generation of DPPH free radicals, superoxide anions (O^2−), lipid peroxidation and erythrocyte hemolysis. The DPPH free radical scavenging assay was performed using 2,2-diphenyl-1-picrylhydrazyl (DPPH) free radical scavenging method [Ara. N. and Hasan, N. (2009) Res. J. Med. Medical Sci. 4, 107-110]. Different concentrations of Microsan and Brevisan were mixed individually with 150 μl of 160 μM methanolic solution of DPPH and incubated at 35° C. for 30 min in dark. The effective concentration (EC50) was calculated by measuring the absorbance of the samples at 517 nm. The superoxide anion scavenging was measured using phenazine methosulfate-nicotinamide adenine dinucleotide (PMS/NADH) method as previously described [Liu, F., Ooi, V. E. and Chang, S. T. (1997) Life Sci. 60, 763-771]. The lipid peroxidation assay was performed using the previously described method [Zhang, Q., Yu, P., Li, Z., Zhang, H., Xu, Z. and Li, P. (2003) J. Appl. Phycol. 15, 305-310] which is based on measuring the lipid peroxide decomposed product malondialdehyde (MDA). […] Samples were incubated at 37° C. for 30 min and the absorbance was measured at 540 nm. […]

[9] = Superoxide anion scavenging (PMS/NADH method); format: biochemical; conditions: cell free
Procedure: as §2

[10] = Lipid peroxidation assay (malondialdehyde); format: biochemical; conditions: cell free
Procedure: as §2

[11] = system: erythrocytes; test: Erythrocyte hemolysis assay (H2O2); format: cell-based; conditions: Erythrocyte, 0.5 h; human erythrocytes, H2O2, 37° C., 30 min; read-out: EC50 erythrocyte hemolysis inhibition
Procedure: as §2

Laminarin
Minimum inhibitory concentration (MIC) [1]: 18.75 µg/mL
Minimum inhibitory concentration (MIC) [2]: 37.5 µg/mL
Minimum inhibitory concentration (MIC) [3]: 4.68 µg/mL
Minimum inhibitory concentration (MIC) [4]: 4.68 µg/mL
Minimum inhibitory concentration (MIC) [5]: 18.75 µg/mL
Minimum inhibitory concentration (MIC) [6]: 4.68 µg/mL
Minimum inhibitory concentration (MIC) [7]: 9.37 µg/mL

CC(C)CCCCCCCCC[C@@H]1CC(=O)N[C@@H](CCC(=O)O)C(=O)N[C@@H](CC(C)C)C(=O)N[C@H](CC(C)C)C(=O)N[C@@H](C(C)C)C(=O)N[C@@H](CC(=O)O)C(=O)N[C@H](CC(C)C)C(=O)N[C@@H](CC(C)C)C(=O)O1 [Surfactin] (EL[dL]VD[dL]L; linker N-C via X1)
MIC ([1]; MTCC739, read-out: Minimum inhibitory concentration (MIC)): 9.37 µg/mL (≈ 9.04 µM)
MIC ([2]; MTCC2940, read-out: Minimum inhibitory concentration (MIC)): 18.8 µg/mL (≈ 18.1 µM)
MIC ([3]; MTCC2470, read-out: Minimum inhibitory concentration (MIC)): 18.8 µg/mL (≈ 18.1 µM)
MIC ([4]; MTCC2453, read-out: Minimum inhibitory concentration (MIC)): 18.8 µg/mL (≈ 18.1 µM)
MIC ([5]; MTCC96, read-out: Minimum inhibitory concentration (MIC)): 9.37 µg/mL (≈ 9.04 µM)
MIC ([6]; MTCC530, read-out: Minimum inhibitory concentration (MIC)): 9.37 µg/mL (≈ 9.04 µM)
MIC ([7]; MTCC121, read-out: Minimum inhibitory concentration (MIC)): 4.68 µg/mL (≈ 4.52 µM)

O=C1O[C@H]([C@@H](O)CO)C(O)=C1O [ascorbic acid, reference compound]
EC50 DPPH free radical scavenging [8]: 40.28 µg/mL (≈ 229 µM)
EC50 superoxide anions (O^2−) scavenging [9]: 21.1 µg/mL (≈ 120 µM)
EC50 lipid peroxidation inhibition [10]: 130.97 µg/mL (≈ 744 µM)
EC50 [11]: 120 µg/mL (≈ 680 µM)

Source: US10106627B2, “Process for the preparation of polymeric biosurfactants” (priority 2014, dated 2018)
